From patent EP1282680B1, “COMPOSITIONS COMPRISING CYCLODEXTRIN” (THE PROCTER & GAMBLE COMPANY, priority 2000, dated 2001)
Structures can show the parent of a compound that is named as a salt.

Legend:
[1] = CD interaction of perfume components; format: physicochemical; conditions: weak = cyclodextrin-compatible; significant or strong = cyclodextrin-incompatible
Text: The following table illustrates the molecular weight property of some of the cyclodextrin-incompatible enduring (hydrophobic) perfume materials (i.e. having significant or strong CD interaction) versus cyclodextrin-compatible perfume materials (i.e. having weak CD interaction).

[2] = Complexation constant with cyclodextrin, spectral displacement method with phenolphthalein; format: binding; conditions: unit not given, the text gives complexation constants in M^-1
Text: (§1) A spectral displacement method with phenolphthalein is used to determine the complexation constant between cyclodextrin and a given material, especially for surfactants. This method of determining complexation constants with cyclodextrins is described in detail in the following references: Sasaki, KJ., Christian, S.D., and Tucker, E.E., "Study of the Stability of 1:1 Complexes Between Aliphatic Alcohols and b-Cyclodextrins in Aqueous Solution," Fluid Phase Equilibria, Vol. 49, (Amsterdam, Elsevier Science Publishers, 1989), pp. 281-89. Further information regarding spectral displacement methods can be found in other references, e.g. in Wilson, L.D., Siddall, S.R, and Verrall RE., "A Spectral Displacement Study of the Binding Constants of Cyclodextrin-Hydrocarbon and - Fluorocarbon Surfactant Inclusion Complexes," Canadian Journal of Chemistry, Vol. 75, (NRC Canada 1997), pp. 927-933.
The test method is based on the fact that phenolphthalein will complex with cyclodextrin and in complexed form is colorless. However, it has a strong color at pH 10.5 when in non-complexed form. Other, cyclodextrin-incompatible, materials themselves complex with the cyclodextrin and prevent the phenolphthalein from doing so. Thus the higher the complexation constant of the other component with cyclodextrin, the more non-complexed phenolphthalein will be present and the stronger the observed color.
The complexation constant of a given material with cyclodextrin is obtained by an absorbance measurement in the visible region at 550 nm that is performed with a spectrophotometer at room temperature. All solutions are prepared in 4.0 x 10^-3 mol/l Na2CO3 solution to maintain a constant pH. The concentration of phenolphthalein is kept constant at 3.0 x 10^-5 mol/l. Cyclodextrin concentration and surfactant concentration are varied. Here, optimum parameter values for absorption coefficient of phonolphthalein at 550 nm is 33,000 M^-1 cm^-1, and the complexation constants of phenolphthalein with cyclodextrin and cyclodextrin derivatives are preliminary obtained. […] Complexation constants of cyclodextrin-compatible and/or cyclodextrin-incompatible materials arc determined with using the free, uncomplexed phenolphthalein concentration obtained by absorbance at 550 nm.

[3] = cited from earlier work
[4] = Complexation constant of phenolphthalein with beta-cyclodextrin, absorbance at 550 nm; format: binding; conditions: room temperature, 4.0 x 10^-3 mol/l Na2CO3 solution, pH 10.5
Text: as §1, with “927-933. […]” for “927-933.”
The complexation constant of a given material with cyclodextrin is obtained by an absorbance measurement in the visible region at 550 nm that is performed with a spectrophotometer at room temperature. […] Complexation constants of cyclodextrin-compatible and/or cyclodextrin-incompatible materials arc determined with using the free, uncomplexed phenolphthalein concentration obtained by absorbance at 550 nm.

[5] = Elevation of surfactant surface tension in the presence of cyclodextrin; format: physicochemical; conditions: in the presence of a typical cyclodextrin like hydroxypropyl beta-cyclodextrin and methylated beta-cyclodextrin (1%)
Text: Cyclodextrin-incompatible surfactants generally can be readily identified by the noticeable effect of cyclodextrin on the surface tension provided by the cyclodextrin-incompatible surfactant This is achieved by determining the surface tension (in dyne/cm) of aqueous solutions of the cyclodextrin-incompatible surfactant in the presence and in the absence of 1% of a specific cyclodextrin in the solutions. The aqueous solutions contain cyclodextrin-incompatible surfactant at concentrations of approximately 0.5%, 0.1%, 0.01%, and 0.005%. The cyclodextrin can affect the surface activity of a surfactant by elevating the surface tension of the surfactant solution. […]
Suitable cyclodextrin-compatible surfactants can also be readily identified by the absence of effect of cyclodextrin on the surface tension provided by the surfactant. […]

Molecule: CC1COCc2cc3c(cc21)C(C)(C)C(C)C3(C)C (centres unmarked) [Galaxolide]
- CD interaction [1]: weak

Molecule: CC(=O)/C=C/C1C(C)=CCCC1(C)C (centres unmarked) [a-ionone]
- CD interaction [1]: strong

Molecule: CC(=O)OC1CC2CC1C1CC=CC21 (centres unmarked) [Flor Acetate]
- CD interaction [1]: strong

Molecule: a-Me Ionone
- CD interaction [1]: strong

Molecule: CC(C=O)Cc1ccc(C(C)C)cc1 (centres unmarked) [Cymal]
- CD interaction [1]: strong

Molecule: CCCCCCCCCCCC[N+](C)(C)C.[Br-] [Dodecyltrimethylammonium bromide]
- Complexation Constant (K) [2]: about 18100

Molecule: CC(=O)C(C)=C(C)C(C)C(C)(C)C (centres unmarked) [Koavone]
- CD interaction [1]: strong

Molecule: CCC(C)(O)CCCC(C)C (centres unmarked) [Tetrahydrolinalol]
- CD interaction [1]: significant

Molecule: CC(=O)C1(C)CC2=C(CCCC2(C)C)CC1C (centres unmarked) [Iso-E Super]
- CD interaction [1]: weak

Molecule: CCCCCC1C(=O)CCC1CC(=O)OC (centres unmarked) [Methyl Dihydro Jasmonate]
- CD interaction [1]: weak

Molecule: CCCCCCCCCCCCCC(=O)OC(C)C [Iso-propyl Myristate]
- CD interaction [1]: weak

Molecule: CCCCCCCCCCCC(=O)[O-].[Na+] [Sodium laurate]
- Complexation Constant (K) [2]: about 16000

Molecule: [H]/N=C(\N/C(=N/[H])NCCCCCCNC(=N)NC(=N)Nc1ccc(Cl)cc1)Nc1ccc(Cl)cc1 [diacetate salt, 1,1'-hexamethylene bis(5-(p-chlorophenyl)biguanide)]
- solubility in water [3]: 1.8%

Molecule: Lauramine oxide
- Complexation Constant (K) [2]: about 7500

Molecule: [H]/N=C(\N/C(=N/[H])NCCCCCCNC(=N)NC(=N)Nc1ccc(Cl)cc1)Nc1ccc(Cl)cc1 [digluconate salt, 1,1'-hexamethylene bis(5-(p-chlorophenyl)biguanide)]
- solubility in water [3]: 70%

Molecule: CC(=O)OC1CCC(C(C)(C)C)CC1 (centres unmarked) [Vertenex, para-tert-butylcyclohexyl acetate]
- CD interaction [1]: strong

Molecule: O=C1OC(c2ccc(O)cc2)(c2ccc(O)cc2)c2ccccc21 [phenolphthalein]
- complexation constant of phenolphthalein with beta-cyclodextrin [4]: about 21,000 M^-1

Molecule: Lawreth-6
- Complexation Constant (K) [2]: about 10000

Molecule: CCCCCCCCCCCCOS(=O)(=O)[O-].[Na+] [Sodium dodecyl sulfate]
- elevation in surface tension [5]: > 10%
- Complexation Constant (K) [2]: about 22000

Molecule: CCCCCCC(C=O)=Cc1ccccc1 [Hexyl cinnamic Aldehyde]
- CD interaction [1]: weak

Molecule: CC(C)(O)CCCC1=CCC(C=O)CC1 (centres unmarked) [Lyral]
- CD interaction [1]: weak

Molecule: CC(C=O)Cc1ccc(C(C)(C)C)cc1 (centres unmarked) [Lilial, p-t-bucinal]
- CD interaction [1]: strong

Molecule: dodecanolpoly(6)ethoxylate
- elevation in surface tension [5]: > 10%

Molecule: CCCCCCOC(=O)c1ccccc1O [Hexyl Salicylate]
- CD interaction [1]: weak

Molecule: O=C(Cc1ccccc1)OCCc1ccccc1 [Phenyl-Ethyl-Phenyl Acetate]
- CD interaction [1]: weak

Molecule: CCOC(=O)c1ccccc1C(=O)OCC [Diethyl Phthalate]
- CD interaction [1]: weak

Molecule: CC(=O)OC(C)(C)C1CC=C(C)CC1 (centres unmarked) [Terpinyl Acetate]
- CD interaction [1]: significant

Molecule: CCC(=O)OC1CC2CC1C1CC=CC21 (centres unmarked) [Frutene]
- CD interaction [1]: strong
